target: recombinant eIF4E (Homo sapiens (Human), UniProt P06730); test: Fluorescence polarization competition assay for eIF4E binding potency; conditions: inhibition of eIF4E/EDA-m7GDP-ATTO-550 binding; calculated IC50 values, Table 4B; read-out: IC50
Summary of the method: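 FP readout; IC50 fit from 8-point, 3-fold series. 75 nM eIF4E + 20 nM ATTO-550-labelled m7GDP probe, Tris pH 7.5/NaCl/DTT/Tween buffer, 1% DMSO final. 30 min RT equilibration, light-protected.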

recombinant eIF4E, sequence (P06730 whole entry): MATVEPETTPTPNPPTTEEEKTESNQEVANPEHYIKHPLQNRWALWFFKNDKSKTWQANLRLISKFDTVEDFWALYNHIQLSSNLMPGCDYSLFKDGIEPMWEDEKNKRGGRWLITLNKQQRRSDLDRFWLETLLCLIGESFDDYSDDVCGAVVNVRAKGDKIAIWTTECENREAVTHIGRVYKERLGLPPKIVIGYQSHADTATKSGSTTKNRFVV

Structure (SMILES) | IC50
Cc1nc2cnc(N3CCC4(CC3)CN(CC(F)F)C4)c(C#N)c2c(=O)n1CC#Cc1ccc(Cl)cc1-c1ccnc2c(C(=O)NS(=O)(=O)C3COC3)csc12 [compound 1408] | 17.6 nM
Cc1nc2cnc(N3CCC4(CC3)CN(CC(F)F)C4)c(C#N)c2c(=O)n1CC#Cc1ccc(Cl)cc1-c1ccnc2c(C(=O)NS(=O)(=O)c3cccnc3)csc12 [compound 1409] | 10.8 nM
Cc1nc2cnc(N3CCC4(CC3)CN(CC(C)(F)F)C4)c(C#N)c2c(=O)n1CC#Cc1ccc(Cl)cc1-c1ccnc2c(C(=O)NS(=O)(=O)C3COC3)csc12 [compound 1411] | 17.5 nM
Cc1nc2cnc(N3CCC4(CC3)CN(CC(C)(F)F)C4)c(C#N)c2c(=O)n1CC#Cc1ccc(Cl)cc1-c1ccnc2c(C(=O)NS(=O)(=O)c3cccnc3)csc12 [compound 1412] | 6.71 nM
Cc1nc2cnc(N(C)C3(C)CCN(CC(F)F)CC3)c(C#N)c2c(=O)n1CC#Cc1ccc(Cl)cc1-c1ccnc2c(C(=O)O)csc12 [compound 1413] | 51.7 nM
Cc1nc2cnc(N3CCC(C)(N(C)CC(F)F)CC3)c(C#N)c2c(=O)n1CC#Cc1ccc(Cl)cc1-c1ccnc2c(C(=O)O)csc12 [compound 1414] | 15.3 nM
Cc1nc2cnc(C3(C)CCN(C)CC3)c(C#N)c2c(=O)n1CCOc1ccc(Cl)cc1-c1ccnc2c(C(=O)O)csc12 [compound 1415] | 16.8 nM
Cc1nc2cnc(N3CCN(C4(CCF)CC4)CC3)c(C#N)c2c(=O)n1CCOc1ccc(Cl)cc1-c1ccnc2c(C(=O)O)csc12 [compound 1425] | 13 nM
Cc1nc2cnc(N(C)C3CCN(C4(CF)CC4)CC3)c(C#N)c2c(=O)n1CCOc1ccc(Cl)cc1-c1ccnc2c(C(=O)O)csc12 [compound 1428] | 12.2 nM
Cc1nc2cnc(N(C)C3CCN(C4(C(F)F)CC4)CC3)c(C#N)c2c(=O)n1CCOc1ccc(Cl)cc1-c1ccnc2c(C(=O)O)csc12 [compound 1430] | 22.8 nM
Cc1nc2cnc(N3CCN(CCCF)CC3)c(C#N)c2c(=O)n1CC#Cc1ccc(Cl)cc1-c1ccnc2c(C(=O)O)csc12 [compound 1457] | 18 nM
Cc1nc2cnc(N3CCN(CCCC(F)(F)F)CC3)c(C#N)c2c(=O)n1CC#Cc1ccc(Cl)cc1-c1ccnc2c(C(=O)O)csc12 [compound 1458] | 19.1 nM
Cc1nc2cnc(N3CCN(C)C(CF)C3)c(C#N)c2c(=O)n1CC#Cc1ccc(Cl)cc1-c1ccnc2c(C(=O)O)csc12 (stereo not shown) [compound 1459] | 20.7 nM
Cc1nc2cnc(N3CCN(C)C(COC(F)(F)F)C3)c(C#N)c2c(=O)n1CC#Cc1ccc(Cl)cc1-c1ccnc2c(C(=O)O)csc12 (stereo not shown) [compound 1460] | 7.99 nM
Cc1nc2cnc(C3=CCN(C4CC4)CC3)c(C#N)c2c(=O)n1CC#Cc1ccc(Cl)cc1-c1ccnc2c(C(=O)O)csc12 [compound 1461] | 13.8 nM
Cc1nc2cnc(C3=CCN(CCF)CC3)c(C#N)c2c(=O)n1CC#Cc1ccc(Cl)cc1-c1ccnc2c(C(=O)O)csc12 [compound 1462] | 20.1 nM

Structure (SMILES) | IC50
Cc1nc2cnc(C3=CCN(CC(F)F)CC3)c(C#N)c2c(=O)n1CC#Cc1ccc(Cl)cc1-c1ccnc2c(C(=O)O)csc12 [compound 1463] | 22.9 nM
Cc1nc2cnc(N3CCN(CCOC(F)F)CC3)c(C#N)c2c(=O)n1CC#Cc1ccc(Cl)cc1-c1ccnc2c(C(=O)O)csc12 [compound 1464] | 13.4 nM
COCC1(N2CCN(c3ncc4nc(C)n(CC#Cc5ccc(Cl)cc5-c5ccnc6c(C(=O)O)csc56)c(=O)c4c3C#N)CC2)CC1 [compound 1465] | 23.6 nM
Cc1nc2cnc(N3CCN(C(C)C(F)F)CC3)c(C#N)c2c(=O)n1CC#Cc1ccc(Cl)cc1-c1ccnc2c(C(=O)O)csc12 (stereo not shown) [compound 1466] | 17.9 nM
Cc1nc2cnc(N3CCC(N4CC(F)(F)C4)CC3)c(C#N)c2c(=O)n1CC#Cc1ccc(Cl)cc1-c1ccnc2c(C(=O)O)csc12 [compound 1467] | 11 nM
Cc1nc2cnc(C#CCN(C)CC(F)(F)F)c(C#N)c2c(=O)n1CC#Cc1ccc(Cl)cc1-c1ccnc2c(C(=O)O)csc12 [compound 1468] | 35 nM
Cc1nc2cnc(N(C)C3CCN(C4CC(F)(F)C4)CC3)c(C#N)c2c(=O)n1CCOc1ccc(Cl)cc1-c1ccnc2c(C(=O)O)csc12 [compound 1477] | 18.1 nM
Cc1nc2cnc(N3C[C@H]4CN(CC(F)F)C[C@H]4C3)c(C#N)c2c(=O)n1CCOc1ccc(Cl)cc1-c1ccnc2c(C(=O)O)csc12 [compound 1478] | 13 nM
Cc1nc2cnc(OC3CCN(CCF)CC3)c(C#N)c2c(=O)n1CCOc1ccc(Cl)cc1-c1ccnc2c(C(=O)O)csc12 [compound 1479] | 16.7 nM
Cc1nc2cnc(C3CCC(F)(F)CC3)c(C#N)c2c(=O)n1CC#Cc1ccc(Cl)cc1-c1ccnc2c(C(=O)O)csc12 [compound 1481] | 20.8 nM
Cc1nc2cnc(C3=CCC(F)(F)CC3)c(C#N)c2c(=O)n1CC#Cc1ccc(Cl)cc1-c1ccnc2c(C(=O)O)csc12 [compound 1482] | 16.6 nM
Cc1nc2cnc(N3CCN(C(C)(C)CF)CC3)c(C#N)c2c(=O)n1CCOc1ccc(Cl)cc1-c1ccnc2c(C(=O)NS(C)(=O)=O)csc12 [compound 1483] | 13.7 nM
Cc1nc2cnc(CC3CCN(CC(F)F)CC3)c(C#N)c2c(=O)n1CCOc1ccc(Cl)cc1-c1ccnc2c(C(=O)O)csc12 [compound 1484] | 22.9 nM
Cc1nc2cnc(CCN(C)CC(F)F)c(C#N)c2c(=O)n1CCOc1ccc(Cl)cc1-c1ccnc2c(C(=O)O)csc12 [compound 1485] | 22.9 nM
Cc1nc2cnc(N3CCN(CCC(F)(F)F)CC3)c(C#N)c2c(=O)n1CC#Cc1ccc(Cl)cc1-c1ccnc2c(C(=O)NS(C)(=O)=O)csc12 [compound 1486] | 10.7 nM
Cc1nc2cnc(N3CCN(CC(F)F)CC3)c(C#N)c2c(=O)n1CC#Cc1ccc(Cl)cc1-c1ccnc2c(C(=O)NS(C)(=O)=O)csc12 [compound 1487] | 25.4 nM

Other lines, results leading:

IC50 | Structure (SMILES)
12.7 nM | Cc1cc(-c2cc(Cl)ccc2OCCn2c(C)nc3cc(C(F)(F)F)c(N4CCN(C)CC4)c(C#N)c3c2=O)c2sc(C)c(C(=O)O)c2n1 [compound 1416]
24.9 nM | Cc1cc(-c2cc(Cl)ccc2OCCn2c(C)nc3cc(C(F)(F)F)c(C4=CCN(C)CC4)c(C#N)c3c2=O)c2sc(C)c(C(=O)O)c2n1 [compound 1417]
9.1 nM | Cc1cc(-c2cc(Cl)ccc2OCCn2c(C)nc3cnc(N4CCN(C)CC4)c(C#N)c3c2=O)c2sc(C)c(C(=O)O)c2n1 [compound 1418]
6.76 nM | Cc1cc(-c2cc(Cl)ccc2OCCn2c(C)nc3c(C4COC4)ncc(C#N)c3c2=O)c2scc(C(=O)O)c2n1 [compound 1419]
6.33 nM | Cc1cc(-c2cc(Cl)ccc2OCCn2c(C)nc3cc(C(F)(F)F)c(N4CC5(CN(C)C5)C4)c(C#N)c3c2=O)c2sc(C)c(C(=O)O)c2n1 [compound 1420]
36.6 nM | Cc1cc(-c2cc(Cl)ccc2OCCn2c(C)nc3cnc(C4(F)CN(C)C4)c(C#N)c3c2=O)c2scc(C(=O)O)c2n1 [compound 1421]
29.2 nM | Cc1nc2cnc(N3CCN(C(C)CF)CC3)c(C#N)c2c(=O)n1CCOc1ccc(Cl)cc1-c1ccnc2c(C(=O)O)csc12 (stereo not shown) [compound 1424]
14.3 nM | Cc1nc2cnc(C3CCC(N(C)CC(F)(F)F)C3)c(C#N)c2c(=O)n1CCOc1ccc(Cl)cc1-c1ccnc2c(C(=O)O)csc12 (stereo not shown) [compound 1427]
17.8 nM | Cc1nc2cnc(N(C)C3CCN(C(C)(C)CF)CC3)c(C#N)c2c(=O)n1CCOc1ccc(Cl)cc1-c1ccnc2c(C(=O)O)csc12 [compound 1429]
19.8 nM | Cc1nc2cnc(N(C)C3CCN(C(C)(C)C(F)F)CC3)c(C#N)c2c(=O)n1CCOc1ccc(Cl)cc1-c1ccnc2c(C(=O)O)csc12 [compound 1431]
21.2 nM | Cc1nc2cnc(N(C)C3CCN(C(CF)CF)CC3)c(C#N)c2c(=O)n1CCOc1ccc(Cl)cc1-c1ccnc2c(C(=O)O)csc12 [compound 1432]
27.4 nM | CCN(c1ncc2nc(C)n(CCOc3ccc(Cl)cc3-c3ccnc4c(C(=O)O)csc34)c(=O)c2c1C#N)C1CCN(CC(F)F)CC1 [compound 1433]
29.5 nM | Cc1nc2cnc(N3CC4(C3)CN(C3CC3(C)C)C4)c(C#N)c2c(=O)n1CCOc1ccc(Cl)cc1-c1ccnc2c(C(=O)O)csc12 (stereo not shown) [compound 1436]
40.8 nM | Cc1nc2cnc(N3CCN(C4CC4)C(C(F)(F)F)C3)c(C#N)c2c(=O)n1CCOc1ccc(Cl)cc1-c1ccnc2c(C(=O)O)csc12 (stereo not shown) [compound 1438]
29.8 nM | Cc1nc2cnc(N(C)C3CCN(CC(F)(F)Cl)CC3)c(C#N)c2c(=O)n1CCOc1ccc(Cl)cc1-c1ccnc2c(C(=O)O)csc12 [compound 1441]
23 nM | CCC(F)(CC)CN1CCN(c2ncc3nc(C)n(CCOc4ccc(Cl)cc4-c4ccnc5c(C(=O)O)csc45)c(=O)c3c2C#N)CC1 [compound 1469]
30.8 nM | Cc1nc2cnc(N3CCN(CC4(F)CC4)CC3)c(C#N)c2c(=O)n1CCOc1ccc(Cl)cc1-c1ccnc2c(C(=O)O)csc12 [compound 1470]
14.2 nM | Cc1nc2cnc(N3CCN(CC4(C(F)(F)F)CC4)CC3)c(C#N)c2c(=O)n1CCOc1ccc(Cl)cc1-c1ccnc2c(C(=O)O)csc12 [compound 1471]
28.9 nM | Cc1nc2cnc(N3CCN(CC(C)(C)C(F)(F)F)CC3)c(C#N)c2c(=O)n1CCOc1ccc(Cl)cc1-c1ccnc2c(C(=O)O)csc12 [compound 1472]
16.9 nM | Cc1nc2cnc(N3CCN(C4C(C)(C)C4(C)C)CC3)c(C#N)c2c(=O)n1CCOc1ccc(Cl)cc1-c1ccnc2c(C(=O)O)csc12 [compound 1473]
13.8 nM | Cc1nc2cnc(N3CCN(CC(F)(F)Cl)CC3)c(C#N)c2c(=O)n1CCOc1ccc(Cl)cc1-c1ccnc2c(C(=O)O)csc12 [compound 1474]
7.2 nM | Cc1nc2cnc(N3CC4(C3)CN(C3CC(F)(F)C3)C4)c(C#N)c2c(=O)n1CCOc1ccc(Cl)cc1-c1ccnc2c(C(=O)O)csc12 [compound 1475]
16.2 nM | Cc1nc2cnc(N3CC4(C3)CN(C3C(C)(C)C3(C)C)C4)c(C#N)c2c(=O)n1CCOc1ccc(Cl)cc1-c1ccnc2c(C(=O)O)csc12 [compound 1476]
